The test relates to Toxoplasma gondii growth in host cells, no IFN-gamma. The test can be described thus: T. gondii intracellular growth, IFN-gamma absent, dose response, cell-based (AID 1259420).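 Also: host cells were HeLa; final incubation lasted 72 hours.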

“And” between values parts separate entries of the source, which are not always exact repeats. Identical values can stand only once. Results filed as inconclusive are left out. The source made the active and inactive calls. No rule for the calls is given here.

Turning to `CN(C[C@H]1N[C@@H](CO)[C@@H]1c1ccc(C2=CCCC2)cc1)C(=O)c1cccc(F)c1`, the AC50 is 3.41 µM and 4.45 µM. As for `COc1cccc(S(=O)(=O)N2CCCCN3[C@H](CO)[C@H](c4ccc(C#CCC(C)C)cc4)[C@H]3C2)c1`, the AC50 is 7.96 µM and 10.6 µM. Regarding `CN1CCC2(C=C(C(=O)N3CCCC3)c3ccccc32)CC1`, the AC50 was > 39 µM (inactive). Turning to `C[C@H](NC(=O)C[C@H]1CC[C@@H]2[C@@H](COc3ccc(NS(=O)(=O)c4ccc(Cl)cc4)cc3C(=O)N2C)O1)c1ccccc1`, the AC50 was 13.7 µM and 36.1 µM. In the case of `CC(C)CC#Cc1ccc([C@@H]2[C@@H](CO)N3CCCCN(C(=O)Nc4ccccc4)C[C@H]23)cc1` it was 15.9 µM; in that of `O=S1(=O)c2ccccc2O[C@H]2CCN(Cc3ccc(Cl)cc3)CC[C@H]2N1CC1CC1`, 22.5 µM. Take `CN1c2ccc(C3=CCCCC3)cc2[C@@H]2[C@@H](CCN2C(=O)c2ccc3c(c2)OCO3)[C@@H]1CO`: the AC50 was 27.5 µM. For `Cc1nc2ccccn2c1CN(C)Cc1cnn(-c2ccccc2)c1`, the AC50 is 12.2 µM.

As for `Cc1ccc(N2CCC3(CC2)CN(CC#N)Cc2ccccc23)nn1`, the AC50 is > 39 µM (inactive). As for `C/C=C/c1ccc(C2[C@H]3CNC[C@@H]2N3C(=O)NC2CCCCC2)cc1` (stereo partly specified), the AC50 was 13.3 µM. `C[C@@H]1CN([C@@H](C)CO)C(=O)c2cccc(NC(=O)NC3CCCCC3)c2O[C@@H]1CN(C)Cc1ccc(C(F)(F)F)cc1`: the AC50 was > 39 µM (inactive). For the compound `O=C(C[C@H]1C[C@@H]2CN(Cc3ccccc3)C[C@H]2O1)N1CCCCO1`, the AC50 was > 39 µM (inactive).

Regarding `COc1ccc(-c2ccc(C3[C@@H]4CN(C(=O)c5ccc(F)cc5)C[C@H]3N4)cc2)cc1` (stereo partly specified), the AC50 is 24.4 µM and 13.3 µM. Turning to `CN(C)C(=O)COCC1CN(S(C)(=O)=O)Cc2nnn(C)c21` (stereo unspecified), the AC50 is > 39 µM (inactive). Regarding `CCn1c(C2CCCN(C(=O)CCN3CCCCCC3=O)C2)nn(C)c1=O` (stereo unspecified), the AC50 was 29.4 µM. As for `CC(C)C#Cc1ccc([C@H]2[C@@H](CO)N3C(=O)CN(S(=O)(=O)c4ccccc4)C[C@H]23)cc1`, the figure is > 39 µM (inactive).

Take `C=C(C)[C@@H]1CC[C@]2(C(=O)O)CC[C@]3(C)[C@H](CC[C@@H]4[C@@]5(C)CC[C@H](O)C(C)(C)[C@@H]5CC[C@]43C)[C@@H]12`: the AC50 is 26.9 µM. In the case of `COc1cccc(-c2ccc([C@@H]3[C@H]4CN(C(=O)c5cccnc5)CC(=O)N4[C@H]3CO)cc2)c1` it was > 39 µM (inactive); in that of `N#C[C@H]1[C@H](c2ccc(C#Cc3ccccc3F)cc2)[C@@H](CO)N1C(=O)c1cccnc1`, > 39 µM (inactive); in that of `Cc1ccc(C)c(S(=O)(=O)N2CCC3(CC2)c2ncc(-c4cccc(F)c4)n2CCN3C)c1`, > 20 µM (inactive). As for `COc1cccc(-c2ccc3c(c2)[C@@H]2[C@@H](CCN2C(=O)c2ccccc2F)[C@H](CO)N3C)c1`, the concentration at half-maximal activity (AC50) is 8.81 µM and 10.2 µM. For the compound `CC(C)(C)CC(C)(C)c1ccc(OCCOCC[N+](C)(C)Cc2ccccc2)cc1`, the AC50 is 14.1 µM.

`CCc1c(C)sc2c1CCN(Cc1nc(-c3cc(C)ccc3C)oc1C)C2c1ccccc1` (stereo unspecified): the AC50 was 16.9 µM.

On to `CCN(C)C(=O)c1ccc2ccc(N(C)Cc3ccc(OC)cc3)n2c1`, for which the AC50 was 19.2 µM.

On to `CCCCN(C)C(=O)c1cnc(-c2noc3cc(NCC4CC4)ccc23)s1`, for which the AC50 was 20.4 µM. In the case of `O=C(c1ccc(F)cc1)N1CC(=O)N2[C@H](CO)[C@H](c3ccc(C#CCC4CCCC4)cc3)[C@@H]2C1`, the AC50 is 14.7 µM. As for `COc1ccc(-c2ccc3c(c2)[C@@H]2[C@@H](CCN2C(=O)c2cccc(F)c2)[C@H](CO)N3)cc1`, the AC50 is 11.3 µM. Regarding `CC(C)C#Cc1ccc([C@H]2[C@@H](C#N)N(C(=O)c3cccc(F)c3)[C@@H]2CO)cc1`, the concentration at half-maximal activity (AC50) is 14.1 µM. In the case of `CC(C)CC#Cc1ccc([C@@H]2[C@@H](CO)N3C(=O)CN(C(=O)Nc4cc(F)ccc4F)C[C@@H]23)cc1` it was 17.1 µM. Turning to `Cc1ccc(S(=O)(=O)Nc2ccc3c(c2)C(=O)N([C@H](C)CO)C[C@H](C)[C@H](CN(C)Cc2ccc(C(F)(F)F)cc2)O3)cc1`, the AC50 is 18.5 µM. As to `CCc1ccc(S(=O)(=O)N2CCC3(CCCN(Cc4c(C)noc4C)C3)C2)cc1` (stereo unspecified), the concentration at half-maximal activity (AC50) is 35.4 µM. On to `Cc1cccc(OCC(=O)N2CCC3(CC2)Nc2ccc(Cl)cc2-n2cccc23)c1`, for which the AC50 is 13.7 µM. As for `N#Cc1ccc(-c2ccc([C@@H]3[C@@H]4CN(S(=O)(=O)Cc5ccccc5)C[C@H]3N4)cc2)cc1`, the AC50 was 9.96 µM. For `COc1ccccc1-c1ccc2c(c1)[C@@H]1[C@@H](CCN1S(=O)(=O)c1ccc(C)cc1)[C@H](CO)N2`, the AC50 is 12.4 µM.

`Cn1cnc(S(=O)(=O)N2CCCCN3[C@H](CO)[C@H](c4ccc(C5=CCCCC5)cc4)[C@@H]3C2)c1`: the AC50 is 23.4 µM and 22.7 µM.

In the case of `CN(C)Cc1noc2c1CN(Cc1nccn1C)CC2`, the AC50 is > 39 µM (inactive). For the compound `CN(Cc1ccccn1)C(=O)C1=NOC2(CCN(S(=O)(=O)c3ccc(F)cc3)C2)C1` (stereo unspecified), the AC50 was > 39 µM (inactive). In the case of `CC(C)(C)c1ccc(S(=O)(=O)N2CCC[C@@H]2C(=O)NCCc2csc(-c3ccccc3)n2)cc1`, the AC50 is > 39 µM (inactive). With `Cc1ccc(S(=O)(=O)N2CC[C@@H]3[C@H]2c2cc(-c4cccc(C(=O)N(C)C)c4)ccc2N[C@@H]3CO)cc1`, the AC50 is 30.1 µM. As for `COc1cccc(S(=O)(=O)N2CCCCN3[C@@H](CO)[C@H](c4ccc(C#CCC(C)C)cc4)[C@@H]3C2)c1`, the AC50 was 21.4 µM and 16.4 µM and 30.4 µM. As to `O=C(c1ccc(F)cc1)N1CC(=O)N2[C@H](C1)[C@@H](c1ccc(C#CCC3CCCC3)cc1)[C@@H]2CO`, the AC50 is 14.3 µM.

`CC1CCCCN1CCNc1nc(-c2ccc(Cl)cc2)nc2ccccc12` (stereo unspecified): the AC50 is 11.8 µM. Regarding `COc1cccc(S(=O)(=O)N2CCCCN3[C@H](CO)[C@H](c4ccc(-c5ccccc5)cc4)[C@H]3C2)c1`, the AC50 is 13.1 µM.

With `N#C[C@@H]1[C@@H](c2ccc(C3=CCCCC3)cc2)[C@@H](CO)N1S(=O)(=O)c1ccccc1`, the AC50 is > 39 µM (inactive). Take `COc1cc2c(cc1O)CC[C@@H]1[C@@H]2CC[C@]2(C)[C@@H](O)CC[C@@H]12`: the AC50 was 11.2 µM and 5.79 µM. Regarding `COc1ccc(S(=O)(=O)N2CCCCN3[C@H](CO)[C@@H](c4ccc(C#CCC(C)C)cc4)[C@H]3C2)cc1`, the AC50 was 12.8 µM and 7.95 µM. As to `O=C(Nc1cccc(F)c1)N1CCCCN2[C@H](CO)[C@H](c3ccc(C#Cc4cccnc4)cc3)[C@@H]2C1`, the AC50 is 1.34 µM and 2.47 µM. Take `O=C(Cc1ccccc1)N1CCC2(CC1)CC(N1CCCC1)CO2` (stereo unspecified): the AC50 was > 39 µM (inactive). As to `CCCCCCCCCCCCCCCC[N+](C)(C)C`, the AC50 was 15.3 µM.

As to `CCCNC(=O)N1[C@H](C#N)[C@H](c2ccc(-c3ccccc3F)cc2)[C@@H]1CO`, the AC50 was 4.65 µM.

In the case of `O=C(CCCCCCNC(=O)c1cnc(N(c2ccccc2)c2ccccc2)nc1)NO`, the AC50 is 14.8 µM. In the case of `COC(=O)[C@@H]1C[C@@H](N(C)C)CN1S(=O)(=O)c1c(C)ccc2nsnc12`, the AC50 was > 39 µM (inactive). Turning to `CCN(CC)CCO[C@H]1CC[C@@]2(C)C(=CC[C@@H]3[C@@H]2CC[C@]2(C)C(=O)CC[C@@H]32)C1`, the AC50 was > 39 µM (inactive). As for `O=C(CC1CC1)N1CC[C@@H]2[C@H]1c1cc(-c3ccc(F)cc3)ccc1N[C@@H]2CO`, the figure is 16.3 µM. For the compound `O=C(c1ccc(F)cc1)N1CC(=O)N2[C@@H](CO)[C@H](c3ccc(C#CCC4CCCC4)cc3)[C@@H]2C1`, the AC50 is 18.6 µM and 22.6 µM. As to `Cc1ccc(S(=O)(=O)N2CC[C@H]3[C@@H](CO)N(C)c4ccc(-c5ccccc5F)cc4[C@H]32)cc1`, the AC50 was > 20 µM (inactive). Regarding `O=C(Nc1cccc(F)c1)N1CCCCN2[C@H](CO)[C@H](c3ccc(C#Cc4cccnc4)cc3)[C@H]2C1`, the AC50 is 16.4 µM. `COc1ccc(-c2nc3c(s2)CN(S(=O)(=O)c2ccccc2C)CC3)cc1`: the AC50 is 8.96 µM. Take `Cc1nc2c(cnn2-c2ccccc2)c(=O)n1-c1cccc2ccccc12`: the AC50 is 10.9 µM. As for `C=CCN1C(=O)COC2(CCN(Cc3ccc(C)s3)CC2)C1C` (stereo unspecified), the figure is > 39 µM (inactive). For `CC(=O)NC1=NN(C(C)=O)C(C)(c2ccccc2)S1` (stereo unspecified), the AC50 is > 20 µM (inactive). In the case of `COc1cccc(CN2CCCCN3[C@@H](CO)[C@@H](c4ccc(-c5ccccc5OC)cc4)[C@@H]3C2)c1`, the AC50 is 15.7 µM.

For `COc1ccc(NC(=O)N2CCCCN3[C@H](C2)[C@@H](c2ccc(-c4ccccc4F)cc2)[C@@H]3CO)cc1`, the AC50 was 35.8 µM. In the case of `COc1ccccc1CN1CC[C@@H]2[C@H]1c1cc(-c3cccc(C(=O)N(C)C)c3)ccc1N[C@@H]2CO`, the AC50 was 20.2 µM.

In the case of `C[C@H]1CN([C@@H](C)CO)C(=O)c2cccc(NC(=O)c3ccc(-c4nccs4)cc3)c2O[C@@H]1CN(C)C(=O)Nc1ccc(C(F)(F)F)cc1`, the AC50 was > 42 µM (inactive). For `O=S(=O)(c1ccccc1F)N1CC[C@H]2[C@H](CO)Nc3ccc(C4=CCCCC4)cc3[C@H]21`, the AC50 is 12.4 µM. On to `O=C(C[C@@H]1CC[C@@H]2[C@H](COC[C@H](O)CN2Cc2ccc3c(c2)OCO3)O1)N1CCCCC1`, for which the AC50 is > 39 µM (inactive). As for `COc1cccc(-c2ccc(C3[C@@H]4CN(S(=O)(=O)Cc5ccccc5)C[C@H]3N4)cc2)c1` (stereo partly specified), the figure is 16.9 µM and 13.1 µM; as for `COc1cc(CN2C[C@@H]3N[C@H](C2)C3c2ccc(-c3ccc(C#N)cc3)cc2)cc(OC)c1` (stereo partly specified), 7.99 µM. For the compound `O=C(NCc1cccnc1)C1CC2CN(Cc3cccc(Cl)c3)CC1O2` (stereo unspecified), the AC50 is 4.73 µM. As to `CC(C)(C)OC(=O)Nc1cc(-c2cn[nH]c2C2CCCN(C(=O)OC(C)(C)C)C2)ccn1` (stereo unspecified), the AC50 was > 20 µM (inactive). On to `Cc1ccc(S(=O)(=O)Nc2ccc3c(c2)C(=O)N([C@@H](C)CO)C[C@@H](C)[C@H](CN(C)Cc2ccc(C(F)(F)F)cc2)O3)cc1`, for which the AC50 was > 20 µM (inactive).

On to `CN1C(=O)c2cc(NC(=O)Cc3cccs3)ccc2OC[C@H]2O[C@@H](CC(=O)NCc3ccc(-c4ccccc4)cc3)CC[C@@H]21`, for which the AC50 was 20 µM and > 39 µM (inactive).

`C/C=C/c1ccc(C2[C@H]3CNC[C@@H]2N3Cc2cc(F)ccc2F)cc1` (stereo partly specified): the AC50 is 11.4 µM. In the case of `N#Cc1cccc(-c2ccc3c(c2)[C@H]2[C@H](CCN2C(=O)c2ccccc2F)[C@@H](CO)N3)c1` it was 15.1 µM; in that of `COc1cccc(S(=O)(=O)N2CCCCN3[C@@H](CO)[C@@H](c4ccc(C#CCC(C)C)cc4)[C@@H]3C2)c1`, 12.1 µM and 10.1 µM.
